From publication PMC8343220, “The selectivity of α‐adrenoceptor agonists for the human α1A, α1B, and α1D‐adrenoceptors” (Pharmacology Research & Perspectives, 2021)

Tests used:
[1] = biological target: T1, human α1D‐adrenoceptor (full length) (Homo sapiens, UniProt P25100); assay: ^3H‐prazosin whole‐cell radioligand binding, CHO‐α1D cells
T1 construct: human α1D‐adrenoceptor (full length) were used; expressed in transfected cells; host or cells: CHO-K1
T1 sequence (P25100 1-572): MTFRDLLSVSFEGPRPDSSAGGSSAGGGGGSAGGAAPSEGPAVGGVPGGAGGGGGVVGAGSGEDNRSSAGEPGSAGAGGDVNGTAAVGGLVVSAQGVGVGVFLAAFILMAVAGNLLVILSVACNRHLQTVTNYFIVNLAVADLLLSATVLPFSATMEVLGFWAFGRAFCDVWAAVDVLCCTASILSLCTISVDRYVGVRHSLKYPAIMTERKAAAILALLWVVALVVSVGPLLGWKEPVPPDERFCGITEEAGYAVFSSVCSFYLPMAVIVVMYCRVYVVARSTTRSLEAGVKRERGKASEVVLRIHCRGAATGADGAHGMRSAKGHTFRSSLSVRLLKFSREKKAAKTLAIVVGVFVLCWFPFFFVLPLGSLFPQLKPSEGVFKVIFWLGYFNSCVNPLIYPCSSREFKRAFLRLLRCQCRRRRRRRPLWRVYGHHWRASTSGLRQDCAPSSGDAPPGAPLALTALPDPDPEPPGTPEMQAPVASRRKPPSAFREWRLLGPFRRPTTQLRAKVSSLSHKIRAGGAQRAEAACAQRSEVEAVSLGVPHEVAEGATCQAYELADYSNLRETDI

human α1B‐adrenoceptor [2] = biological target: T2, human α1B‐adrenoceptor (Homo sapiens, UniProt P35368); assay: ^3H‐cAMP accumulation in the presence of 10 μM forskolin, CHO‐α1B cells; assay type: cell-based; conditions: CHO‐α1B cells
T2 construct: expressed in transfected cells; host or cells: CHO-K1
T2 sequence (P35368 1-520): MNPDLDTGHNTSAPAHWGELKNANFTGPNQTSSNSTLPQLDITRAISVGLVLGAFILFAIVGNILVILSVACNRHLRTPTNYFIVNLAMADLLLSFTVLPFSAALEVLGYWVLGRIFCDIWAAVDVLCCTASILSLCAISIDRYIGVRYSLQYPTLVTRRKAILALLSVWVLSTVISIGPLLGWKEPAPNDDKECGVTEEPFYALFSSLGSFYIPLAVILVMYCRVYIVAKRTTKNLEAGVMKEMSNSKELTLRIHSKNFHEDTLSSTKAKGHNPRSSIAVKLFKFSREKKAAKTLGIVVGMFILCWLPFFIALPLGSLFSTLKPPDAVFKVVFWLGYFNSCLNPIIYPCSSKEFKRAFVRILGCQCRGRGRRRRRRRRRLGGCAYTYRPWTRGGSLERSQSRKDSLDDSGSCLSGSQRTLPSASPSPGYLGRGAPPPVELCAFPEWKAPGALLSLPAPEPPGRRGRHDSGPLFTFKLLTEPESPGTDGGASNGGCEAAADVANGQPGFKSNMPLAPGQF

[3] = biological target: T1, human α1D‐adrenoceptor (full length); assay: ^3H‐cAMP accumulation in the presence of 10 μM forskolin, CHO‐α1D cells; assay type: cell-based; conditions: CHO‐α1D cells
[4] = biological target: T1, human α1D‐adrenoceptor (full length); assay: Intracellular free calcium mobilization, CHO‐α1D cells; assay type: cell-based; conditions: CHO‐α1D cells
human α1A‐adrenoceptor [5] = biological target: T3, human α1A‐adrenoceptor (Homo sapiens, UniProt P35348); assay: ^3H‐cAMP accumulation, CHO‐α1A cells; assay type: cell-based; conditions: CHO‐α1A cells
T3 construct: expressed in transfected cells; host or cells: CHO-K1
T3 sequence (P35348 1-466): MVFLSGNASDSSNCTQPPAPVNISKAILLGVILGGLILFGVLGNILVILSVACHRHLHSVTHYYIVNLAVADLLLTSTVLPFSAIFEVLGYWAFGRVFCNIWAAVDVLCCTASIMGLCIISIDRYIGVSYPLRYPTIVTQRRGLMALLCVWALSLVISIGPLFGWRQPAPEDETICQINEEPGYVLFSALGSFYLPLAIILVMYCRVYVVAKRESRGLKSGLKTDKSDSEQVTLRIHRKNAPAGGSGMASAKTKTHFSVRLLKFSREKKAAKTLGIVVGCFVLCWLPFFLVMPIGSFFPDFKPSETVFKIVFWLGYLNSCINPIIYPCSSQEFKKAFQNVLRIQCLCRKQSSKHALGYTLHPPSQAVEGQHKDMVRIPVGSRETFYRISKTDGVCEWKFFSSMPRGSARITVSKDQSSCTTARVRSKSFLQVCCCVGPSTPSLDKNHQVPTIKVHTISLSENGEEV

human α1A‐adrenoceptor [6] = biological target: T3, human α1A‐adrenoceptor; assay: ERK1/2‐phosphorylation (Surefire Alphascreen), CHO‐α1A cells; assay type: cell-based; conditions: CHO‐α1A cells, ^a bi‐phasic: initial stimulatory part
human α1A‐adrenoceptor [7] = biological target: T3, human α1A‐adrenoceptor; assay: ^3H‐cAMP accumulation in the presence of 10 μM forskolin, CHO‐α1A cells; assay type: cell-based; conditions: CHO‐α1A cells
human α1B‐adrenoceptor [8] = biological target: T2, human α1B‐adrenoceptor; assay: ^3H‐prazosin whole‐cell radioligand binding, CHO‐α1B cells; conditions: CHO‐α1B cells; given as log KD (negative); mean ± SEM
human α1B‐adrenoceptor [9] = biological target: T2, human α1B‐adrenoceptor; assay: Intracellular free calcium mobilization, CHO‐α1B cells; assay type: cell-based; conditions: CHO‐α1B cells
human α1A‐adrenoceptor [10] = biological target: T3, human α1A‐adrenoceptor; assay: ^3H‐prazosin whole‐cell radioligand binding, CHO‐α1A cells
human α1B‐adrenoceptor [11] = biological target: T2, human α1B‐adrenoceptor; assay: ERK1/2‐phosphorylation (Surefire Alphascreen), CHO‐α1B cells; assay type: cell-based; conditions: CHO‐α1B cells, for bi‐phasic responses the initial stimulatory part
[12] = test system: parental CHO cell line without any transfected receptors; assay: Forskolin‐stimulated cAMP accumulation, parent CHO cells without transfected receptors; assay type: cell-based, Chinese hamster; conditions: CHO cells without transfected receptors; response at 100μM only, EC50 not obtainable; % of forskolin-stimulated cAMP
[13] = fold increase of the forskolin response

`c1ccc(C2CC2)c(OCC2=NCCN2)c1` [Cirazoline] was tested, and the Kd ([1]; CHO‐α1D cells, given as log KD (negative), mean ± SEM, 'early plateau' = specific binding not fully inhibited) was 2950 nM, the “Affinity selectivity ratio α1B vs α1D” value ([1]; higher affinity for α1D than α1B) was 2.7 fold and the “cAMP accumulation (in presence of forskolin) Fold increase” value (human α1B‐adrenoceptor [2]; [13]) was 2.09 ± 0.13 fold. The EC50 (human α1B‐adrenoceptor [2]; in presence of forskolin, read-out: cAMP accumulation (in presence of forskolin) Log EC50 (converted)) was 39.8 nM, the “cAMP (in presence of forskolin) Fold increase” value [3, 13] was “No response” and the “cAMP (in presence of forskolin) Log EC50” value ([3]; in presence of forskolin, log values given negative) was “No response”. The “Log efficacy ratio KD /EC50” value ([4]; intrinsic efficacy ratio, binding KD / calcium EC50) was 1.37, the “Intracellular calcium release Log EC50” value ([4]; log values given negative) was −6.90 ± 0.09 and the “Intracellular calcium release % ionomycin” value ([4]; maximal response as % of 10 µM ionomycin) was 17.3 ± 3.8%. For the same compound, the EC50 (human α1A‐adrenoceptor [5]; 5 h, read-out: cAMP accumulation Log EC50 (converted)) was 123 nM, the “cAMP accumulation % forskolin” value (human α1A‐adrenoceptor [5]; % of 10 µM forskolin response) was 108.9 ± 6.5% and the EC50 (human α1A‐adrenoceptor [6]; 2–4 min, ^b also active in parent CHO cells, read-out: ERK1/2‐phosphorylation Log EC50 (converted)) was 0.955 nM. The “ERK1/2‐phosphorylation % PDBu” value (human α1A‐adrenoceptor [6]; % of 10 µM PDBu) was 80.8 ± 3.6%, the EC50 (human α1A‐adrenoceptor [7]; 10 μM forskolin, read-out: cAMP accumulation (in presence of forskolin) Log EC50 (converted)) was 10.7 nM and the “cAMP accumulation (in presence of forskolin) Fold increase” value (human α1A‐adrenoceptor [7]; [13]) was 2.38 ± 0.15 fold. For the same compound, the Kd (human α1B‐adrenoceptor [8]) was 7940 nM, the EC50 (human α1B‐adrenoceptor [9]; given as log EC50 (negative numbers), read-out: Intracellular calcium release Log EC50 (converted)) was 8.91 nM and the “Log efficacy ratio KD /EC50” value (human α1B‐adrenoceptor [9]; intrinsic efficacy ratio, KD from binding / EC50 calcium, log) was 2.95. The “Intracellular calcium release % ionomycin” value (human α1B‐adrenoceptor [9]; maximal response as % of 10 µM ionomycin response) was 53.3 ± 1.5%, the Kd (human α1A‐adrenoceptor [10]; CHO‐α1A cells, given as log KD (negative), mean ± SEM) was 676 nM and the “Affinity selectivity ratio α1A vs α1B” value (human α1A‐adrenoceptor [10]; higher affinity for α1A than α1B) was 11.7 fold. For the same compound, the “Affinity selectivity ratio α1A vs α1D” value (human α1A‐adrenoceptor [10]; higher affinity for α1A than α1D) was 4.4 fold, the EC50 (human α1B‐adrenoceptor [11]; read-out: ERK1/2‐phosphorylation Log EC50 (converted)) was 120 nM and the “ERK1/2‐phosphorylation % PDBu” value (human α1B‐adrenoceptor [11]; maximal response as % PDBu response) was 82.5 ± 8.6%. The “cAMP accumulation (in presence of forskolin) % forskolin-stim cAMP at 100μM” value [12] was 82.4 ± 2.8%.
